{
  "source": "ChEMBL document CHEMBL4325859",
  "about": "“Research advances on anticancer activities of matrine and its derivatives: An updated overview” (Eur J Med Chem, 2019)",
  "key": {"HT-29 [1]": {"test_system": "HT-29", "experiment": "Growth inhibition of human HT-29 cells at 32 ml/L after 36 hrs by MTT assay relative to control", "type": "functional"}, "SMMC-7721": {"test_system": "SMMC-7721", "experiment": "Antiproliferative activity against human SMMC7721 cells at 200 ug/ml after 72 hrs by MTT assay relative to control", "type": "functional"}, "KYSE-150 cell line": {"test_system": "KYSE-150 cell line", "experiment": "Antiproliferative activity against human KYSE-150 cells assessed as cell viability at 1.5 mg/ml after 24 hrs by MTT assay relative to control", "type": "functional", "details": "KYSE-150, 24 h, read-out: Activity"}, "HT-29 [2]": {"test_system": "HT-29", "experiment": "Growth inhibition of human HT-29 cells at 32 ml/L after 48 hrs by MTT assay relative to control", "type": "functional"}, "M21": {"test_system": "M21", "experiment": "Growth inhibition of human M21 cells assessed as cell viability at 5 mg/ml after 48 hrs by MTT assay (reference value: 98%)", "type": "functional", "details": "M21, 48 h, read-out: Activity"}, "[3]": {"experiment": "Growth inhibition of human GRC1 cells at 0.3 g/L after 72 hrs by MTT assay relative to control", "type": "functional", "details": "read-out: GI"}, "RPMI-8226": {"test_system": "RPMI-8226", "experiment": "Induction of apoptosis in human RPMI8226 cells at 1.5 g/L after 48 hrs by Annexin V-FITC/propidium iodide staining based flow cytometry (Rvb < 3%)", "type": "functional"}, "MM1.S": {"test_system": "MM1.S", "experiment": "Growth inhibition of human MM1S cells after 24 hrs", "type": "functional, cell-based"}},
  "data": [
    {"smiles": "O=C1CCC[C@@H]2[C@H]3CCCN4CCC[C@@H](CN12)[C@@H]34", "note": "[MATRINE]", "values": [
      {"measurement": "growth inhibition (GI)", "setting": "HT-29 [1]", "value": 77.14, "unit": "%"},
      {"measurement": "Activity", "setting": "SMMC-7721", "value": 77.4, "unit": "%"},
      {"measurement": "viability at 1500 µg/mL", "setting": "KYSE-150 cell line", "value": 64, "unit": "%"},
      {"measurement": "growth inhibition (GI)", "setting": "HT-29 [2]", "value": 84.2, "unit": "%"},
      {"measurement": "viability at 5000 µg/mL", "setting": "M21", "value": 20, "unit": "%"},
      {"measurement": "inhibition of growth at 300 µg/mL", "setting": "[3]", "value": 14.9, "unit": "%"},
      {"measurement": "Activity", "setting": "RPMI-8226", "value": 32.89, "unit": "%"},
      {"measurement": "IC50", "setting": "MM1.S", "value": 4.95, "unit": "mM"}
    ]}
  ]
}
